Test results reported in US11439628B2, “Use of non-steroidal mineralocorticoid receptor antagonists alone or in combination for the treatment of muscular or neuromuscular diseases” (Bayer Aktiengesellschaft, priority 2018, dated 2022).

Experiments:
[1] = tested on: MDX-mice; experiment: Grip strength test (front-leg muscle strength) in MDX mice; assay type: in vivo; settings: for GS/BW trial 5 / GS/BW trial 1 / Grip Strength trial 1 / Grip Strength trial 5: MDX-mice treated 16 weeks via chow (150 ppm BAY 41-2272 or 100 ppm Finerenone), Mean ± SEM; for GS/BW trial 5 / GS/BW trial 1: grip strength related to body weight; for GS/BW trial 5: fatigued mice; for GS/BW trial 1: rested mice; for Grip Strength trial 1: highest force from rested mice; for Grip Strength trial 5: highest force in fatigued mice; for Effect on muscle strength (grip strength), in words: MDX-mice treated 16 weeks, each compound alone; for Efficacy of monotherapy compared with combination of steroidal MR antagonist (spironolactone) and ACE inhibitor (lisinopril): regarding grip strength, base myocardial strain rate and forces after lengthening contractions of the EDL, comparator from Lowe et al.
Text: (§1) Preferentially mice were used, especially transgenic mice (B6.Cg-^Terctm1Rdp Dmd^mdx-4Cv/BlauJ; Jackson Laboratories, strain Nr.: 023535; Dystrophin-deficient, utrophin haplo-insufficient (utrn +/−; mdx)). These so called MDX mice carry a mutation in the dystrophin gene which reflects the phenotype and clinical situation of patients with muscular dystrophies (Sacco et al.; Cell. 2010 Dec. 23; 143(7):1059-71, Mourkioti et al. Nat Cell Biol. 2013 August; 15(8):895-904).
(§2) As read-outs were preferentially used: • In vitro, hydroxyproline measurement to assess fibrotic tissue. To analyze the collagen content in tissue samples, hydroxyproline assays were performed. After digestion of the tissue (e.g. heart and muscle) in 6M HCl for three hours at 120° C., chloramine T (0.06 M) was added and samples were mixed and incubated for 20 min at room temperature. 3.15 M perchloric acid and 20% p-dimethylaminobenzaldehyde were added and samples were incubated for additional 20 min at 60° C. The absorbance was determined at 557 nm. • In vitro, semiquantitative RT/PCR (TaqMan PCR) was used to assess gene expression. Mice were euthanized and hearts and muscles (e.g. EDL=extensor digitorum longus muscle, diaphragm) were collected. Total RNA was isolated and gene expression was semiquantified after reverse transcription (RT) reaction via TaqMan polymerase chain reaction (PCR). • In vitro, histopathology to assess heart and muscle damage. Mice were euthanized and hearts and muscles (e.g. EDL, diaphragm) were collected. Cryosections were prepared and stained with Hematoxylin and Eosin (H&E) to assess overall histopathology. • Ex vivo, contractility measurements of muscle contraction in isolated muscles (e.g. EDL, diaphragm) to assess muscle function and contractility. Isolated muscles were stretched to optimal length using twitch contractions (evoked by a single 4 ms pulse). After 10 minutes, a tetanus contraction was performed (150 Hz for 250 ms). After another 5 min rest period, 6 eccentric contractions (150 Hz for 450 ms, subjected to a 3% stretch for the final 200 ms of contraction) were done with two minutes of rest between the first 5 stimulations and 15 minutes of rest between the fifth and sixth stimulation. • In vivo, non-invasive echocardiography and computer tomography to assess heart and cardiovascular function. Mice were anaesthetized and heart structure and function was assessed non-invasively by using the echocardiograph type Vevo2100. In addition, cardiac function was investigated in anesthetized mice by using magnetic resonance imaging (MRI) technique on a 9.4 or 11.7 Tesla 30 mm bore system (Bruker Biospin) together with standard electrocardiographic (ECG). Myocardial strain and strain rate were assessed using vector-based tracking software (Vector Velocity Imaging, Siemens). • In vivo, invasive left-ventricular function and pressure-volume relationship to assess heart and cardiovascular function. Invasive left-ventricular hemodynamics were performed in anaesthetized mice using a pressure catheter and a PN loop catheter. • In vivo assessment of muscle force (Hanging wire test, four limb hanging test, grip strength test) to asses muscle function. For the hanging wire and four limb hanging test, conscious mice are freely hanging on a grid and hanging time is recorded and corrected for body weight of the mice. The grip strength (GS) measurements to investigate front-leg muscle strength were performed in conscious mice by using a grip strength meter (Columbus Instruments). Mice were trained to hold on with their front paws on a wire mesh grid and carefully pulled backwards. This procedure was repeated up to 5 times with one minute breaks between measurements and the maximal power in Newton (N) was registered. The highest grid strength value (GS) in Newton was reported and related to body weight (BW) in mg. […] (Table 1). • In vivo assessment of physical capacity was assessed. […]

[2] = tested on: MDX-mice; experiment: Endocardial circumferential peak systolic strain rate at the base of the heart (MRI, vector-based tracking); assay type: in vivo; settings: for Effect on heart function (systolic strain rate), in words: MDX-mice treated 16 weeks; for Base_PeakSysSR_Lat (endocardial circumferential S−1) / Base_PeakSysSR_Mean (endocardial circumferential S−1) / Base_PeakSysSR_Septum (endocardial circumferential S−1): MDX-mice treated 16 weeks via chow (150 ppm BAY 41-2272 or 100 ppm Finerenone), base of the heart, Mean ± SEM; for Base_PeakSysSR_Lat (endocardial circumferential S−1): lateral; for Base_PeakSysSR_Mean (endocardial circumferential S−1): mean; for Base_PeakSysSR_Septum (endocardial circumferential S−1): septum
Text: as §1, §2

[3] = tested on: MDX-mice; experiment: EDL eccentric contractions (ex vivo contractility of isolated muscle from treated mice); assay type: in vivo; settings: for Ecc2 (% Ecc1) / Ecc5 (% Ecc1) / Post-rest Ecc6 (% Ecc1): EDL of MDX-mice treated 16 weeks via chow (150 ppm BAY 41-2272 or 100 ppm Finerenone), Mean ± SEM; for Ecc2 (% Ecc1): 2nd eccentric contraction; for Ecc5 (% Ecc1): 5th eccentric contraction; for Post-rest Ecc6 (% Ecc1): 6th eccentric contraction after 15 minutes of rest; for Effect on muscle strength (EDL eccentric contractions), in words: MDX-mice treated 16 weeks
Text: as §1, §2

[4] = rats, [14C]-labeled; Kolkhof et al. 2014; cited from earlier work
[5] = tested on: DMD boys; settings: added to background ACE inhibitor or ARB therapy; at 12 months; Raman et al. 2015; cited from earlier work

Row | SMILES | GS/BW trial 5 [1] [mN/g] | GS/BW trial 1 [1] [mN/g] | Grip Strength trial 1 [1] [N] | Grip Strength trial 5 [1] [N] | Effect on muscle strength (grip strength), in words [1] | Effect on heart function (systolic strain rate), in words [2] | Base_PeakSysSR_Lat (endocardial circumferential S−1) [2] [S−1] | Base_PeakSysSR_Mean (endocardial circumferential S−1) [2] [S−1] | Base_PeakSysSR_Septum (endocardial circumferential S−1) [2] [S−1] | Ecc2 (% Ecc1) [3] [% Ecc1] | Ecc5 (% Ecc1) [3] [% Ecc1] | Post-rest Ecc6 (% Ecc1) [3] [% Ecc1] | Effect on muscle strength (EDL eccentric contractions), in words [3] | Tissue distribution into cardiac and kidney tissues [4] | Efficacy of monotherapy compared with combination of steroidal MR antagonist (spironolactone) and ACE inhibitor (lisinopril) [1] | Efficacy of monotherapy compared with combination of steroidal MR antagonist (spironolactone) and ACE inhibitor (lisinopril) ([1]; listed as (S)-4-(4-Cyano-2-methoxyphenyl)-5-ethoxy-2,8-dimethyl-1,4-dihydro-1,6-naphthyrid) | Effect on left ventricular systolic function (LV circumferential strain) [5]
1 | Nc1nc(-c2nn(Cc3ccccc3F)c3ncccc23)ncc1C1CC1 [BAY41-2272, 3-(4-amino-5-cyclopropylpyrimidin-2-yl)-1-(2-fluorobenzyl)-1H-pyrazolo[3,4-b]pyridine] | 33.9 ± 0.9 | 38.3 ± 1.1 | 1.0 ± 0.04 | 0.9 ± 0.04 | improvement of muscle strength | attenuation of heart function decline | 0.37 ± 0.02 | 0.36 ± 0.02 | 0.39 ± 0.03 | 86 ± 2 | 60 ± 5 | 60 ± 5 | improvement of muscle strength |  |  |  | 
2 | CCOc1ncc(C)c2c1[C@H](c1ccc(C#N)cc1OC)C(C(N)=O)=C(C)N2 [Finerenone, (S)-4-(4-Cyano-2-methoxyphenyl)-5-ethoxy-2,8-dimethyl-1,4-dihydro-1,6-naphthyridin-3-carboxamid] | 37.5 ± 1.1 | 40.3 ± 1 | 1.1 ± 0.04 | 1.1 ± 0.04 | improvement of muscle strength | attenuation of heart function decline | 0.39 ± 0.04 | 0.35 ± 0.03 | 0.34 ± 0.04 | 94 ± 5 | 71 ± 7 | 72 ± 6 | improvement of muscle strength | balanced distribution | superior | as effective as | 
3 | COC(=O)[C@@H]1CC2=CC(=O)CC[C@]2(C)[C@@]23O[C@@H]2C[C@@]2(C)[C@@H](CC[C@@]24CCC(=O)O4)[C@H]13 [eplerenone] |  |  |  |  |  |  |  |  |  |  |  |  |  |  |  |  | attenuates the progressive decline in left ventricular systolic function
